Earlier results in patent publication US6545056B1, “Aryl nitrone therapeutics and methods for treating inflammatory bowel disease” (Centaur Pharmaceuticals, Inc., priority 1999, dated 2003).

Tested on: senescence-accelerated mice

CC(C)(C)/[N+]([O-])=C/c1ccccc1 [PBN, α-phenyl-t-butyl nitone]
increase of the life span: one third
